Laboratory results reported in article PMC11542607 (RSC Advances, 2024).

Experiments:
[1] = test system: HeLa (cervical epithelioid carcinoma); experiment: MTT cytotoxicity assay, HeLa; assay type: cell-based; settings: Homo sapiens, read-out: IC50 HeLa
[2] = test system: HCT116 (colorectal carcinoma); experiment: MTT cytotoxicity assay, HCT-116; assay type: cell-based; settings: Homo sapiens, HCT-116, read-out: IC50 HCT-116
[3] = test system: MCF-7 (breast cancer); experiment: MTT cytotoxicity assay, MCF-7; assay type: cell-based; settings: Homo sapiens, MCF7, read-out: IC50 MCF-7
[4] = test system: WI-38 normal fibroblast cell line; experiment: Cytotoxicity towards normal human cells; assay type: cell-based; settings: WI-38, read-out: IC50 WI-38
[5] = target: HER-2 (Homo sapiens, UniProt P04626); experiment: biochemical
HER-2, sequence (P04626 23-1255): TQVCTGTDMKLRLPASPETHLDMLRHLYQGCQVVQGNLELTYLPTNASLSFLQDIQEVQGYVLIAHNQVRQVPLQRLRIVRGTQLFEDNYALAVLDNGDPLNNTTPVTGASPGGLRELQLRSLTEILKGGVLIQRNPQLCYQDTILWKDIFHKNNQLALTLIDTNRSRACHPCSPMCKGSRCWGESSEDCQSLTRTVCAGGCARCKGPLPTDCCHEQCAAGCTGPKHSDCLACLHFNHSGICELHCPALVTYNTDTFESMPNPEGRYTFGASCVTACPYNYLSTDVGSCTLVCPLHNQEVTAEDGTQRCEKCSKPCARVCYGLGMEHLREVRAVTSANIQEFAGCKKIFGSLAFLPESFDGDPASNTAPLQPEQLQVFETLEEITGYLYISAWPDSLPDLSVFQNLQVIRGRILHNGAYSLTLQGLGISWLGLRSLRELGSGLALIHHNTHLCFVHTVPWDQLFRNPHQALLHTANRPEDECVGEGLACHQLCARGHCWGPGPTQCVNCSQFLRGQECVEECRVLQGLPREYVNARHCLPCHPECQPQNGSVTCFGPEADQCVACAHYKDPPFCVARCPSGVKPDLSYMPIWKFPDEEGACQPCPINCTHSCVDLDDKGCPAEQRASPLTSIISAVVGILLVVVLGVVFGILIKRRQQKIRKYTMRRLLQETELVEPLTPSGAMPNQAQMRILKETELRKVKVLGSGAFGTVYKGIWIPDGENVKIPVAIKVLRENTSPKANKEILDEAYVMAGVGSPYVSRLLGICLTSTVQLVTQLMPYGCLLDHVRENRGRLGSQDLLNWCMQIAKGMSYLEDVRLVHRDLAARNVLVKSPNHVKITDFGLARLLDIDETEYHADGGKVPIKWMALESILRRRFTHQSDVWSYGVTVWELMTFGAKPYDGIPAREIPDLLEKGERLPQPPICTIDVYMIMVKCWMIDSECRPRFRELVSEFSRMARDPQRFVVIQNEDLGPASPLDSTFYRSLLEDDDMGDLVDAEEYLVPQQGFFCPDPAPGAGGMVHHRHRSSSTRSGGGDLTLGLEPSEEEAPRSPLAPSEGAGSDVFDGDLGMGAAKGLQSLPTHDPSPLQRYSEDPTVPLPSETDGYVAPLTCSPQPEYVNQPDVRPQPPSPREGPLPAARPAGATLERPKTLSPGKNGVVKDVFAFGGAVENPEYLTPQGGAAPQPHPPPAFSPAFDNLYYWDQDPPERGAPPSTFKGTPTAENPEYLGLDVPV

[6] = target: TOP-II (Homo sapiens, UniProt P11388); experiment: TOP-II enzyme inhibition assay; assay type: biochemical
TOP-II, sequence (P11388 whole entry): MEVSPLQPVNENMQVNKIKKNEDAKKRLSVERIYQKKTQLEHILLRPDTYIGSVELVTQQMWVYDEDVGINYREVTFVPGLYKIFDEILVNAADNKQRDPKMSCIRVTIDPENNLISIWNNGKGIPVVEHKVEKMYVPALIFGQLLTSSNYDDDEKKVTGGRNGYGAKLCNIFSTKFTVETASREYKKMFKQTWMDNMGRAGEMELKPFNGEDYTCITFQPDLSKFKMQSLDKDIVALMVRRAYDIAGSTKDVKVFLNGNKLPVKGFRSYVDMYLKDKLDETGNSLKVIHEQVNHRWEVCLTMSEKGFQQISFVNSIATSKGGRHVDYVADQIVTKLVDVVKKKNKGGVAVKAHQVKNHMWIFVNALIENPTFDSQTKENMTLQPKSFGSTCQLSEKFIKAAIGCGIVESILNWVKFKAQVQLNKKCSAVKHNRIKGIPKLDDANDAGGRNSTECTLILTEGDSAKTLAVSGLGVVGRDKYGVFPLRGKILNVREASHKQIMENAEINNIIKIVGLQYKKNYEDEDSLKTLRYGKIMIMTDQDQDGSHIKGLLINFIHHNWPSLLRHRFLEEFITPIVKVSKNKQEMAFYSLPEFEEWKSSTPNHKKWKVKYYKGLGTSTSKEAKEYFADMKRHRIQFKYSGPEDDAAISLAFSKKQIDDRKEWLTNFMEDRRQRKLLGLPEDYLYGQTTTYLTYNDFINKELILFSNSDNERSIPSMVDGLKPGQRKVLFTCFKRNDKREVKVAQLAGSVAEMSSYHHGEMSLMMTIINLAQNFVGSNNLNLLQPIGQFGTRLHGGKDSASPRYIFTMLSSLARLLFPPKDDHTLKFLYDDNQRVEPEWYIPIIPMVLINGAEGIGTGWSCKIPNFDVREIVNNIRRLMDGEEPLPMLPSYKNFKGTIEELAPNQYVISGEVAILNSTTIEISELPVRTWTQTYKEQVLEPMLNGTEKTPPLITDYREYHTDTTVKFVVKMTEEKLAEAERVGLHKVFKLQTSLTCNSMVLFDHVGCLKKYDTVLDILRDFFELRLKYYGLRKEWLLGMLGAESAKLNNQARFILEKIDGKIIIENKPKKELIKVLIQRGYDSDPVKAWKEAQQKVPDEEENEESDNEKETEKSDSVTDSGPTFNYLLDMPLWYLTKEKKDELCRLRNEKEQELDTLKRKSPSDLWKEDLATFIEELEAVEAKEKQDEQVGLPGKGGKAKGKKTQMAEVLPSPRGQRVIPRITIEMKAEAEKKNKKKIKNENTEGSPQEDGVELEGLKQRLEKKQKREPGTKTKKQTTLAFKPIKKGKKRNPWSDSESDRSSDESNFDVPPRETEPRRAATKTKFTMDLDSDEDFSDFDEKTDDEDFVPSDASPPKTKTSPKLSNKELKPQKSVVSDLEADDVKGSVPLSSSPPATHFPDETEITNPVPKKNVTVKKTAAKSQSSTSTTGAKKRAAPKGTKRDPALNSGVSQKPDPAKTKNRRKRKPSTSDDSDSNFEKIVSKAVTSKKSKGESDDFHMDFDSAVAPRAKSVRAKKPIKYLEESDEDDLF

[7] = test system: caspase-3; experiment: Caspase-3 immunostaining of mammary tissue in DMBA model; assay type: in vivo, mice; settings: for caspase-3 positive cells: immunostaining, mean ± standard error (n = 5), control 4.5 ± 0.2, DMBA 0.5 ± 0.1
[8] = Body weight in DMBA-induced breast cancer model; assay type: in vivo; settings: DMBA model mice; for Body weight at day 20: control 28.91 g, DMBA 35.2 g; for Body weight at start: start of 20 days period, control 20.51 g, DMBA 18.8 g
[9] = target: EGFR (Homo sapiens, UniProt P00533); experiment: EGFR enzyme inhibition assay; assay type: biochemical
EGFR, sequence (P00533 25-1210): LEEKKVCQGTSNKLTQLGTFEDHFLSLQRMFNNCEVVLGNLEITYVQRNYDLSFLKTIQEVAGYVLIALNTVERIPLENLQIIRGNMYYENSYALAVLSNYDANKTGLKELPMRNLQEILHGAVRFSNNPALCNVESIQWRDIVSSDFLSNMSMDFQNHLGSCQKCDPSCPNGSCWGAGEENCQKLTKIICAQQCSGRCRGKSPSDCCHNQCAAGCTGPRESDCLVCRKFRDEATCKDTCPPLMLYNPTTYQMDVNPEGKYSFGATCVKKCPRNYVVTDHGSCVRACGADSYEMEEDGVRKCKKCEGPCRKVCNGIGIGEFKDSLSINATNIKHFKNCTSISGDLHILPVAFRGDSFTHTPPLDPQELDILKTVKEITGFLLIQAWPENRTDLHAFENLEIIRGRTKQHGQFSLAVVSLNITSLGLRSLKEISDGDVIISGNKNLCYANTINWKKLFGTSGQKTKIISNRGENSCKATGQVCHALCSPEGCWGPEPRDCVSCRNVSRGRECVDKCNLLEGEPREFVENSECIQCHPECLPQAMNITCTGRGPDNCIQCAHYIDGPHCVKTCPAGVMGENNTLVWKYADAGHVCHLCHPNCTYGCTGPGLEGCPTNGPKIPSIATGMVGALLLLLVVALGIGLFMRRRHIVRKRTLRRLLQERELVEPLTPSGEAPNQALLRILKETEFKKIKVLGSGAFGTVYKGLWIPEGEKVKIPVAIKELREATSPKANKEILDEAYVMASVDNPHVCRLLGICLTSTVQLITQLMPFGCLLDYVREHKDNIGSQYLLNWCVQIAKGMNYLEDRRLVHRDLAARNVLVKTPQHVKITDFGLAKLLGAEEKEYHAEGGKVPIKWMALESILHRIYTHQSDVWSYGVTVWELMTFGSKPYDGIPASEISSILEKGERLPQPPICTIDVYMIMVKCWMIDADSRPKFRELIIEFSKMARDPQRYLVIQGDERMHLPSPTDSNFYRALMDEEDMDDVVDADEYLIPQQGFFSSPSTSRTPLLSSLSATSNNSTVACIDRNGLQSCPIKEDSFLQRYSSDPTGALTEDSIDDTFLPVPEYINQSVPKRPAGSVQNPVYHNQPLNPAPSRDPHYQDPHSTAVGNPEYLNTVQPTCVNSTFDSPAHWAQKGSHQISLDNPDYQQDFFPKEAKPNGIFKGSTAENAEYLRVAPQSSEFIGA

[10] = target: T1, aromatase (ARO) (Homo sapiens, UniProt P11511); experiment: Aromatase enzyme inhibition assay; assay type: biochemical
T1 sequence (P11511 1-503): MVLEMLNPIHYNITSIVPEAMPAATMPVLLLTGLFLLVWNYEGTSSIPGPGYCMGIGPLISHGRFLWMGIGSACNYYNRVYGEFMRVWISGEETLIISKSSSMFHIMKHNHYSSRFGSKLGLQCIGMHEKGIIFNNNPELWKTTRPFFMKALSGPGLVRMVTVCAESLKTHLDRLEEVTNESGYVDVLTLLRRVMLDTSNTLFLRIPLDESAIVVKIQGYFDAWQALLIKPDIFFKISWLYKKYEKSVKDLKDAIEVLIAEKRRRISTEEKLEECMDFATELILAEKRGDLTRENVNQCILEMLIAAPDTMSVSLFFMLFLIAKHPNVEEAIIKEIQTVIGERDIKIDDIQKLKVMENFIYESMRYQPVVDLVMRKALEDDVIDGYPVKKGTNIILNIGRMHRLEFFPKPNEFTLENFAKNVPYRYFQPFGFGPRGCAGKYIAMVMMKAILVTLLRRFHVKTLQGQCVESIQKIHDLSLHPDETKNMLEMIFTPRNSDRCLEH

[11] = test system: MCF-7 cells; experiment: Flow cytometry cell cycle analysis; assay type: cell-based, human
[12] = test system: DMBA-induced breast cancer; experiment: In vivo DMBA-induced breast cancer model; parameters: species or system mice; settings: day 20; for Final tumor volume: untreated DMBA group approximately 2.4 mm^3

SMILES | IC50 [1] | IC50 [2] | IC50 [3] | IC50 [4] | other results
Cc1cc(Sc2nc(-c3cccc(Br)c3)c(C#N)c(=O)[nH]2)n2ncnc2n1 [Compound 11f, 4-(3-Bromophenyl)-2-((5-methyl-[1,2,4]triazolo[1,5-a]pyrimidin-7-yl)thio)-6-oxo-1,6-dihydropyrimidine-5-carbonitrile] | 35.9 ± 2.2 µM | 31.2 ± 2.2 µM | 22.2 ± 1.6 µM | 77.3 ± 4.3 µM | –
Cc1cc(Sc2nnc(-c3ccccc3)o2)n2ncnc2n1 [Compound 13a, 2-((5-Methyl-[1,2,4]triazolo[1,5-a]pyrimidin-7-yl)thio)-5-phenyl-1,3,4-oxadiazole] | 23.6 ± 1.9 µM | 15 ± 1.2 µM | 18.6 ± 1.3 µM | 91.4 ± 4.9 µM | –
Cc1cc(Sc2nnc(-c3ccc([N+](=O)[O-])cc3)o2)n2ncnc2n1 [Compound 13c, 2-((5-Methyl-[1,2,4]triazolo[1,5-a]pyrimidin-7-yl)thio)-5-(4-nitrophenyl)-1,3,4-oxadiazole] | 10.3 ± 0.9 µM | 6.1 ± 0.5 µM | 2.42 ± 0.1 µM | 38.6 ± 2.2 µM | IC50 [5]: 0.078 µM; IC50 [6]: 31.6 µM; caspase-3 positive cells [7]: 2.3 ± 0.3 cells; Increase of caspase-3 positive cells from the DMBA group ([7]; mouse, in vivo): 360%; Share of the control's apoptotic activity (caspase-3) ([7]; mouse, in vivo): about 51%; Body weight at day 20 [8]: 30.6 g; Body weight at start [8]: 20.2 g; IC50 [9]: 0.087 µM; IC50 [10]: 0.156 µM; Cell cycle distribution G2-M ([11]; DMSO control 18.18): 10.32%; Cell cycle distribution S ([11]; DMSO control 24.83): 37.01%; Cell cycle distribution G0-G1 ([11]; DMSO control 56.99): 52.67%; Reduction in final tumor volume compared to untreated DMBA group [12]: 62.5%; Final tumor volume [12]: about 0.9 mm^3
COc1ccc(-c2nc(Sc3cc(C)nc4ncnn34)[nH]c(=O)c2C#N)cc1OC [Compound 11e, 4-(3,4-Dimethoxyphenyl)-2-((5-methyl-[1,2,4]triazolo[1,5-a]pyrimidin-7-yl)thio)-6-oxo-1,6-dihydropyrimidine-5-carbonitrile] | 13.6 ± 1.1 µM | 8.89 ± 0.8 µM | 5.92 ± 0.3 µM | 60.3 ± 3.3 µM | IC50 [5]: 0.116 µM; IC50 [6]: 36.7 µM; IC50 [9]: 0.246 µM; IC50 [10]: 0.38 µM
Cc1ccc(-c2nnc(Sc3cc(C)nc4ncnn34)o2)cc1 [Compound 13b, 2-((5-Methyl-[1,2,4]triazolo[1,5-a]pyrimidin-7-yl)thio)-5-(p-tolyl)-1,3,4-oxadiazole] | 39 ± 2.4 µM | 29.3 ± 2 µM | 27.8 ± 2 µM | 83.5 ± 4.5 µM | –
Cc1cc(Sc2nnc(-c3ccc(Cl)cc3)o2)n2ncnc2n1 [Compound 13d, 2-(4-Chlorophenyl)-5-((5-methyl-[1,2,4]triazolo[1,5-a]pyrimidin-7-yl)thio)-1,3,4-oxadiazole] | 42.9 ± 2.5 µM | 24.8 ± 1.8 µM | 14.2 ± 1.1 µM | 66.1 ± 3.8 µM | –
Cc1cc(Sc2nnc(NC(=O)Nc3ccccc3)s2)n2ncnc2n1 [Compound 9a, 1-(5-((5-Methyl-[1,2,4]triazolo[1,5-a]pyrimidin-7-yl)thio)-1,3,4-thiadiazol-2-yl)-3-phenylurea] | 25.2 ± 2 µM | 44.4 ± 2.6 µM | 37.2 ± 2.3 µM | 48.4 ± 2.6 µM | –
Cc1cc(Sc2nnc(-c3ccc(Br)cc3)o2)n2ncnc2n1 [Compound 13e, 2-(4-Bromophenyl)-5-((5-methyl-[1,2,4]triazolo[1,5-a]pyrimidin-7-yl)thio)-1,3,4-oxadiazole] | 57.4 ± 3.2 µM | 55.1 ± 3.5 µM | 42.6 ± 2.4 µM | > 100 µM | –
Cc1ccc(-c2nc(Sc3cc(C)nc4ncnn34)[nH]c(=O)c2C#N)cc1 [Compound 11c, 2-((5-Methyl-[1,2,4]triazolo[1,5-a]pyrimidin-7-yl)thio)-6-oxo-4-(p-tolyl)-1,6-dihydropyrimidine-5-carbonitrile] | 19.2 ± 1.6 µM | 21.5 ± 1.5 µM | 9.15 ± 0.7 µM | 45 ± 2.4 µM | –
Cc1cc(Sc2nnc(NC(=O)Nc3ccc(Cl)cc3)s2)n2ncnc2n1 [Compound 9b, 1-(4-Chlorophenyl)-3-(5-((5-methyl-[1,2,4]triazolo[1,5-a]pyrimidin-7-yl)thio)-1,3,4-thiadiazol-2-yl)urea] | 87.7 ± 4.4 µM | > 100 µM | > 100 µM | 64.7 ± 3.5 µM | –
COc1ccc(NC(=O)Nc2nnc(Sc3cc(C)nc4ncnn34)s2)cc1 [Compound 9d, 1-(4-Methoxyphenyl)-3-(5-((5-methyl-[1,2,4]triazolo[1,5-a]pyrimidin-7-yl)thio)-1,3,4-thiadiazol-2-yl)urea] | 82.4 ± 4.1 µM | > 100 µM | 92.4 ± 4.4 µM | > 100 µM | –
Cc1cc(N2CCN(C(=O)CN3CCOCC3)CC2)n2ncnc2n1 [Compound 7e, 1-(4-(5-Methyl-[1,2,4]triazolo[1,5-a]pyrimidin-7-yl)piperazin-1-yl)-2-morpholinoethanone] | 78.5 ± 4.2 µM | 88.4 ± 4.5 µM | 84.7 ± 4.1 µM | 26.3 ± 1.9 µM | –
Cc1cc(Sc2nc(-c3ccc(Cl)cc3)c(C#N)c(=O)[nH]2)n2ncnc2n1 [Compound 11b, 4-(4-Chlorophenyl)-2-((5-methyl-[1,2,4]triazolo[1,5-a]pyrimidin-7-yl)thio)-6-oxo-1,6-dihydropyrimidine-5-carbonitrile] | 17.5 ± 1.4 µM | 12.6 ± 1 µM | 8.39 ± 0.6 µM | 56.2 ± 3 µM | –
Cc1cc(Sc2nc(-c3ccc(Br)cc3)c(C#N)c(=O)[nH]2)n2ncnc2n1 [Compound 11a, 4-(4-Bromophenyl)-2-((5-methyl-[1,2,4]triazolo[1,5-a]pyrimidin-7-yl)thio)-6-oxo-1,6-dihydropyrimidine-5-carbonitrile] | 33.4 ± 2.3 µM | 41 ± 2.4 µM | 30.5 ± 2.1 µM | 75.9 ± 4.1 µM | –
COc1ccc(-c2nc(Sc3cc(C)nc4ncnn34)[nH]c(=O)c2C#N)cc1 [Compound 11d, 4-(4-Methoxyphenyl)-2-((5-methyl-[1,2,4]triazolo[1,5-a]pyrimidin-7-yl)thio)-6-oxo-1,6-dihydropyrimidine-5-carbonitrile] | 63.4 ± 3.6 µM | 47.9 ± 2.7 µM | 34.6 ± 2.3 µM | 71.2 ± 3.9 µM | –
Cc1ccc(NC(=O)Nc2nnc(Sc3cc(C)nc4ncnn34)s2)cc1 [Compound 9c, 1-(5-((5-Methyl-[1,2,4]triazolo[1,5-a]pyrimidin-7-yl)thio)-1,3,4-thiadiazol-2-yl)-3-(p-tolyl)urea] | 51.9 ± 2.8 µM | 58.5 ± 3.3 µM | 46.1 ± 2.5 µM | 18.1 ± 1.3 µM | –
COc1cccc2c1C(=O)c1c(O)c3c(c(O)c1C2=O)C[C@@](O)(C(=O)CO)C[C@@H]3O[C@H]1C[C@H](N)[C@H](O)[C@H](C)O1 [DOX, Doxorubicin, reference compound] | – | – | – | – | IC50 [6]: 34 µM; caspase-3 positive cells [7]: 4.0 ± 0.2 cells; Decrease of caspase-3 positive cells from the control ([7]; mouse, in vivo): 11%; Increase of caspase-3 positive cells from the DMBA group ([7]; mouse, in vivo): 700%; Body weight at day 20 [8]: 31.8 g; Body weight at start [8]: 19.8 g; Reduction in final tumor volume compared to untreated DMBA group [12]: 75%; Final tumor volume [12]: approximately 0.6 mm^3
